Results on six compounds are retold here after patent US20030207813A1, “Retroviral protease inhibitor combinations” (priority 1995, published 2003).

Structures are written as SMILES. ≈ marks a conversion by molar mass, not a printed value.

This experiment has as its system HIV-1 strain 89-959. Briefly: Acute infectivity assay in PHA-activated donor lymphocytes, isolate 89-959. Type of experiment: cell-based. The note with it: Human immunodeficiency virus 1, Lymphocyte, Table 3, footnote marks show values of the same experiment, read-out: Virus Isolate (EC50 ng/mL) 89-959. As for the experimental part: Approximately 3×10^7 cells are activated for 48 hours with about 3-5 μg/ml PHA in RPMI continuing 10% fetal bovine serum and IL-2 (10 U/ml). Quantitated virus stocks are added to the activated lymphocyte suspension at a multiplicity of infection of about 0.001-0.01. The cell-virus suspension is incubated at 37° C. for 2 hours to allow virus absorption. The residual virus inoculum is removed by centrifugation and the cells are resuspended in RPMI containing 10% FBS and 10 U/ml IL-2. These infected cells are added to the test-article diluted in complete tissue culture medium from a stock (10 mg/ml) in DMSO in 96 well microtiter plates to give about 5×10^5 cells per well per 200 μl. Infected, untreated cells and cells treated with DMSO alone (0.1%) or either AZT or DDI were used as controls. The cultures were examined for syncytia formation on days 7 and 11 post-infection or the supernants tested for reverse transcriptase activity or p24 antigen.
RF represents the HIV-1 strain HIV-LRF and RFR represents a mixture of resistant strains obtained by selection of RF against the compound of Example 1. RFR comprises a mixture of viral strains having protease genotypes of G48V (14/40 clones); G48V, V82A (18/40 clones); G48V, L90S (2/40 clones); G48V, 154T, V82A (1/40 clones); G48M (1/40 clones); G48V, Q61H (1/40 clones); V13I, G48V (1/40 clones); G48V, F53L, V82A (1/40 clones); and G48V, V82A, C95Y (1/40 clones). RFR2 represents a mixture of resistant strains obtained by cloning RFR by three rounds of growth at limiting dilution. RFR2 comprises a mixture of viral strains having protease genotypes of G48V, V82A (13/15 clones); G17E, G48V, V82A (1/15 clones); and G48V, V82A, N37D, N88D (1/15 clones). RFRR represents a mixture of resistant strains obtained by selection of RF against the compounds of Examples 1 and 2 and then cloning by three rounds of growth at limiting dilution. RFRR comprises a mixture of viral strains having protease genotypes of G48V, 154T, L63P, V82A (7/9 clones); G48V, 154T, L63P, V82A, N88S (1/9 clones); and G48V, 154T, L63P, G73M, V82A (1/9 clones). SF162 represents the HIV-1 strain SF-162 and SF162R represents a mixture of resistant strains obtained by selection of SF162 against the compound of Example 1. SF162R comprises a mixture of viral strains having protease genotypes of M461, F53L, L63P, A71V, N88D (2/3 clones); and M46I, F53L, L63P, A71V, N88D, Q92R (1/3 clones). 89-959 represents the HIV-1 strain 89-959 and 89-959R represents a mixture of resistant strains obtained by selection of 89-959 against the compound of Example 2. 89-959R comprises a mixture of viral strains having protease genotypes of N88S (4/5 clones); and D25N, T26A, D30N, D37N, R41K, G73D, R87K, N88S (1/4 clones). NL4 represents the HIV-1 strain HIV-1NL4-3. NL4(G48V) represents a strain having a synthetically generated site-directed mutation in the protease from glycine to valine at amino acid position number 48. NL4(I84V) represents a strain having a synthetically generated site-directed mutation in the protease from isoleucine to valine at amino acid position number 84. NL4(R8Q,M46I) represents a strain having synthetically generated site-directed mutations in the protease from arginine to glutamine at amino acid position number 8 and methionine to isoleucine at amino acid position number 46. NL4(P22-538) represents a mixture of resistant strains obtained by selection of HIV-1NL4-3 against the compound of Example 10 after 22 passages comprising protease genotypes M46I, L63P, A71V, V82F, I84V (4/10); M46I, L63P, V82F, I84V (3/10); and M46I, A71V, V82F, I84V (3/10). NL4(P37-538) represents resistant strains obtained by selection of HIV-1NL4-3 against the compound of Example 10 after 37 passages comprising protease genotype M46I, L63P, A71V, 184A. NL4(538/524) represents resistant strains obtained by selection of NL4(P22-538) against the compound of Example 5 after 24 passages comprising protease genotype M46I, L63P, A71V, 184A. […]
In the case of `CC(C)CN(C[C@@H](O)[C@H](Cc1ccccc1)NC(=O)[C@H](CC(N)=O)NC(=O)c1ccc2ccccc2n1)S(=O)(=O)NC(C)(C)C` [Example 8, N-[3-[N^2-[N^1-(1,1-dimethylethyl)aminosulfonyl]-N^2-(2-methylpropyl)amino]-2R-hydroxy-1S-(phenylmethyl)propyl]-2S-[(2-quinolinylcarbonyl)amino]butanediamide], the EC50 was 12 ng/mL (≈ 0.0187 µM).

Take `CNCC(=O)N[C@H](C(=O)N[C@@H](Cc1ccccc1)[C@H](O)CN(CCC(C)C)C(=O)NC(C)(C)C)C(C)(C)C` [Example 2, (2R,3S)-3-(N-methylaminoacetyl-L-tert-butylglycinyl)amino-1-(N-isoamyl-N-(tert-butylcarbamoyl))amino-4-phenyl-2-butanol]: the EC50 came to 100 ng/mL (≈ 0.187 µM).

Take `CC(C)(C)NC(=O)[C@@H]1CC2CCCC[C@@H]2CN1C[C@@H](O)[C@H](Cc1ccccc1)NC(=O)[C@H](CC(N)=O)NC(=O)c1ccc2ccccc2n1` (stereo in doubt) [Example 6, N-tert-Butyl decahydro-2-[2(R)-hydroxy-4-phenyl-3(S)-[[N-(2-quinolylcarbonyl)-L-asparaginyl]amino]butyl]-(4aR,8aS)-isoquinoline-3(S)-carboxamide]: the EC50 turned out to be 4 ng/mL (≈ 0.00596 µM).

`CC(C)CN(C[C@@H](O)[C@H](Cc1ccccc1)NC(=O)[C@H](CC(N)=O)NC(=O)c1ccc2ccccc2n1)C(=O)NC(C)(C)C` (relative stereo) [Example 1, [1S-[1R*(R*),2S*]]-N^1-[3-[[[(1,1-dimethylethyl)amino]carbonyl])2-methylpropyl)amino]-2-hydroxy-1-(phenylmethyl)propyl]-2-[(2-quinolinylcarbonyl)amino]-butanediamide]: the EC50 was 96 ng/mL (≈ 0.159 µM).

Regarding `CC(C)CCN(C[C@@H](O)[C@H](Cc1ccccc1)NC(=O)[C@H](CC(N)=O)NC(=O)c1ccc2ccccc2n1)C(=O)NC(C)(C)C` (relative stereo) [Example 7, [1S-[1R*(R*),2S*]]-N^1-[3-[[[(1,1-dimethylethyl)amino]carbonyl](3-methylbutyl)amino]-2-hydroxy-1-(phenylmethyl)propyl]-2-[(2-quinolinylcarbonyl)amino]-butanediamide], the EC50 is 13 ng/mL (≈ 0.021 µM).

In the case of `CC(C)(C)NC(=O)[C@@H]1CN(Cc2cccnc2)CCN1C[C@@H](O)C[C@@H](Cc1ccccc1)C(=O)N[C@H]1c2ccccc2C[C@H]1O` [Example 5, N-(2(R)-Hydroxy-1(S)-indanyl)-2(R)-phenylmethyl-4(S)-hydroxy-5-(1-(4-(3-pyridylmethyl)-2(S)-N′-(t-butylcarboxamido)-piperazinyl))-pentaneamide], the EC50 was 36 ng/mL (≈ 0.0587 µM).
